Converted amounts (≈) assume the structure as drawn. “And” between values parts separate entries of the source, which are not always exact repeats. Equal entries are not always repeated. Where two headings read alike, the source gives them in different places.
How the values were obtained:
[1] = test system: Leishmania donovani in infected macrophages; conditions: Senn et al. 2007; read-out: IC50 against Leishmania donovani in infected macrophages; cited from earlier work
[2] = test system: Leishmania amazonensis; experiment: Antileishmanial assay, Leishmania in infected macrophages (L. amazonensis); conditions: for IC50: Leishmania amazonensis, Macrophage
[3] = test system: P. falciparum clone W2/Indochina; experiment: In vitro malaria assay, [3H]-hypoxanthine incorporation; type: cell-based; conditions: Plasmodium falciparum, W2, 72 h, read-out: IC50 Plasmodium
Experimental: a. In vitro Parasite Culturing: P. falciparum clone W2/Indochina was grown in continuous culture using RPMI 1640 media containing 10% heat-inactivated type A+ human plasma, sodium bicarbonate (2.4 g/L), HEPES (5.94 g/L) and 4% washed human type A+ erythrocytes. Cultures were gassed with a 90% N2, 5% O2 and 5% CO2 mixture followed by incubation at 37° C. b. Assay Preparation: Test compounds at 5 mg/mL in DMSO were diluted 1:500 and then serially diluted in duplicate over 11 concentrations. P. falciparum cultures with >70% ring stage parasites were diluted to 0.5-0.7% parasitemia and 1.5% hematocrit in RPMI 1640 media. In 96-well plates a volume of 90 μl/well of parasitized erythrocytes was added on top of 10 μL/well of the test compound. A separate plate containing chloroquine, dihydroartemisinin and atovaquone was added to each set of assay plates as control drugs. A Beckman Coulter Biomek 3000 was used to dispense test compounds, control drugs and parasitized erythrocytes into the microtiter plates. Positive and negative controls were included in each plate. Positive controls consisted of parasitized erythrocytes and negative controls consisted of non-parasitized erythrocytes at 1.5% hematocrit in RPMI 1640 media. Assay plates were placed into a modulator incubator chamber and equilibrated with 90% N2, 5% O2 and 5% CO2 mixture then incubated at 37° C. for 48 hours. After 48 hours, approximately 0.05 μCi of [^3H]-hypoxanthine monohydrochloride was added to each well of the assay plates. Plates were put back into the modulator incubation chamber, gassed with the 90% N2, 5% O2 and 5% CO2 mixture then incubated at 37° C. for an additional 24 hours. After 72 hours total incubation time the plates were frozen at −80° C. until later processed for parasite growth determinations. c. Assay Plate Processing: Assay plates were harvested using a Perkin Elmer FilterMate Harvester. The incorporation of [^3H]-hypoxanthine into nucleic acid was measured using a Perkin Elmer Topcount NXT Microplate Scintillation & Luminescence Counter. d. Data Analysis: Data analysis was performed using a custom database manager (Dataspects, Inc). Nonlinear regression analysis was used to calculate EC50.

[4] = test system: C. glabrata; experiment: MIC broth microdilution, Alamar Blue; type: cell-based; conditions: minimum inhibitory concentration
[5] = test system: B. anthracis; type: cell-based; conditions: minimum inhibitory concentration
[6] = test system: HepG2 cells; experiment: Cytotoxicity against human liver (HepG2) cells, Alamar Blue; type: cell-based
Experimental: Several of these analogues were also evaluated for cytotoxicity against human liver (HepG2) cells. Of particular interest was that compounds 47 and 48 were approximately an order of magnitude less cytotoxic as compared to compound 1.
Adherent cell lines were maintained in Eagle's Minimal Essential Media (Sigma-Aldrich, St. Louis, Mo., USA) with 2 mM glutamine and Earle's Balanced Salt Solution (HyClone, Logan, Utah, USA) adjusted to contain 1.5 g/L sodium bicarbonate, 0.1 mM non-essential amino acids, 1 mM sodium pyruvate and 10% fetal calf serum. Fetal calf serum used in these assays was lot matched throughout. All cultures were maintained under a humidified 5% CO2 atmosphere at 37° C., had media refreshed twice weekly and were subcultured by trypsinization and resuspension at a ratio of 1:5 each week. Toxicity assays were conducted between passages 10-20. Target compound toxicity was measured by incubating the test compound with the cells for 4 hours, washing the cells and finally treating the cells with Alamar Blue. After 12-24 hours, the fluorescence of the reduced dye was measured. Fluorescence intensity as a function of test compound concentration was fit to the Fermi equation, using non-linear least squares regression analysis, to estimate IC50 values.

[7] = test system: C. albicans; experiment: MIC broth microdilution, Alamar Blue; type: cell-based; conditions: minimum inhibitory concentration
[8] = test system: Leishmania donovani; experiment: Antileishmanial assay, Leishmania in infected macrophages (L. donovani); conditions: for Selectivity Index: IC50 for HepG2 cells/IC50 for Leishmania donovani; for IC50: Leishmania donovani, Macrophage
[9] = test system: S. pyogenes; experiment: MIC broth microdilution, Alamar Blue; type: cell-based; conditions: minimum inhibitory concentration
[10] = test system: P. aeruginosa; experiment: MIC broth microdilution, Alamar Blue; type: cell-based; conditions: minimum inhibitory concentration
[11] = test system: S. aureus 13709; experiment: MIC broth microdilution, Alamar Blue; type: cell-based; conditions: minimum inhibitory concentration
[12] = test system: E. faecalis; experiment: MIC broth microdilution, Alamar Blue; type: cell-based; conditions: minimum inhibitory concentration
[13] = test system: B. subtilis; experiment: MIC broth microdilution, Alamar Blue; type: cell-based; conditions: minimum inhibitory concentration
[14] = Body and organ weights of infected, treated BALB/c mice; type: in vivo; conditions: for Body weight / Mean body weight of mice Post-treatment: 10 mg/kg i.p.; for Body weight: individual mice, Table 4; for Mean body weight of mice Post-treatment / Mean body weight of mice Pre-treatment: group mean; for Mean body weight of mice Pre-treatment: pre-treatment (baseline)
Experimental: (§1) Compounds 47, 48, and 50 were then evaluated in animal studies with BALB/c mice with leishmaniasis. Compounds were delivered via i.p. injection at 10 mg/kg, with untreated, vehicle, and miltefosine controls as described in Table 2. […] Miltefosine, the only oral treatment currently available to treat leishmaniasis in humans, was also evaluated in the BALB/c mice for comparison purposes.

[15] = test system: leishmaniasis (LV82 PM infection), liver parasitemia; experiment: In vivo efficacy: liver parasitemia in BALB/c mice with leishmaniasis; conditions: 10 mg/kg i.p.; for LDU mean ± SD: group mean, n=4; for % Reduction (Average) in liver parasitemia: infected BALB/c mice; for # of amastigotes per 200 nuclei: liver; for # of amastigotes per 200 nuclei / LDU: individual mice; for LDU: total liver parasitemia
Experimental: The following protocols were used to prepare the various treatments described in Table 2: • a. Miltefosine ([…] stock solution in sterile PBS): 7.5 mg miltefosine was weighed and put in a eppendorf tube, then 0.75 mL of sterile PBS was added. After vortexing, a clear solution was formed. Make 1 mg/mL solution daily by diluting 100 μL of 10 mg/mL miltefosine solution in 900 μL sterile PBS. • b. Vehicle control: 5% (v/v) DMSO, 50% (v/v) PEG 400, 10% (v/v) Ethanol, and 35% (v/v) distilled water. • c. Compound 47 (2 mg/mL solution of compound 47 in PEG 400/Ethanol vehicle): […]. Dilute the above solution 1:20 with PEG 400/EtOH/water daily. After vortexing and warming up at 37° C. for 30 min., a clear solution formed. • d. Compound 48 (2 mg/mL solution of compound 48 in PEG 400/Ethanol vehicle): 6.8 mg of compound 48 was dissolved in 0.17 mL of DMSO to make a 40 mg/mL stock solution. After vortexing, a yellowish-brown solution was formed. Diluted the above solution 1:20 with PEG 400/EtOH/water daily. After vortexing a clear solution formed. • e. Compound 50 (2 mg/mL solution of compound 50 in PEG 400/Ethanol vehicle): 8.4 mg of compound 50 was dissolved in 0.21 mL of DMSO to make a 40 mg/mL stock solution. After vortexing, a dark yellowish-brown solution was formed. Diluted the above solution 1:20 with PEG 400/EtOH/water. After vortexing a clear solution formed.
as §1

[16] = read-out: IC50 Leishmania in infected macrophages
[17] = read-out: IC50 against Leishmania amazonensis
[18] = HepG2, read-out: IC50 mammalian HepG2 cells
[19] = HepG2, read-out: IC50 against the HepG2 cell line

| Structure (SMILES) | IC50 [3] [µg/mL] | MIC C. glabrata [4] | MIC B. anthracis [5] | IC50 [6, 18] [nM] | MIC C. albicans [7] | Selectivity Index [8] | IC50 [8, 16] [nM] | MIC S. pyogenes [9] | MIC P. aeruginosa [10] | MIC S. aureus [11] | MIC E. faecalis [12] | MIC B. subtilis [13] | IC50 [6, 19] [nM] | Body weight [14] | Mean body weight of mice Post-treatment [14] [g] | Mean body weight of mice Pre-treatment [14] [g] | LDU mean ± SD [15] | % Reduction (Average) in liver parasitemia [15] [%] | # of amastigotes per 200 nuclei [15] | LDU [15] | further results |
| --- | --- | --- | --- | --- | --- | --- | --- | --- | --- | --- | --- | --- | --- | --- | --- | --- | --- | --- | --- | --- | --- |
| C=CC(C#CC#CC(O)CCCCCCCCC)OC(C)=O [(S,S)-1, 8-hydroxyheptadeca-1-ene-4,6-diyn-3-yl acetate, reference compound] | 0.27 |  |  |  |  |  |  |  |  |  |  |  |  |  |  |  |  |  |  |  | IC50 [1]: 320 nM; IC50 [2, 16]: 1280 nM; IC50 [2, 17]: 1280 nM |
| C=C[C@@H](C#CC#C[C@@H](CCCCCCCCC)NS(C)(=O)=O)OC(C)=O [Compound 46, (3S,8R)-8-(methylsulfonamido)heptadeca-1-en-4,6-diyn-3-yl acetate] | 4.47 | >1000 | >1000 | 29000 ± 1000 | >1000 | 530 | 55 | 8 | >1000 | >1000 | >1000 | 4 |  |  |  |  |  |  |  |  |  |
| C=C[C@@H](C#CC#C[C@H](O)CCCCCCCCC)OC(C)=O [Compound 1, (3S,8R)-8-hydroxyheptadeca-1-en-4,6-diyn-3-yl acetate] | 0.341 | >1000 | 4 | 35000 ± 3000 | >1000 |  |  | 8 | >1000 | >1000 | 32 | 8 | 35000 ± 3000 |  |  |  |  |  |  |  | Selectivity Index ([2]; IC50 for HepG2 cells/IC50 for Leishmania amazonensis): 60; IC50 [2, 16]: 626 nM; IC50 [2, 17]: 630 nM |
| C=C[C@@H](C#CC#C[C@@H](CCCCCCCCC)NCCCC)OC(C)=O [Compound 48, (3S,8R)-8-(butylamino)heptadeca-1-en-4,6-diyn-3-yl acetate] | 5.72 | >1000 | 250 | 342000 ± 46000 | 1000 | 10,000 | 34 | 250 | >1000 | 500 | 500 | 125 | 342000 ± 46000 | 17.2 g and 19.2 g and 19.8 g and 19.0 g | 18.8 | 19.3 | 2721.9 | 32.4 | 536 and 529 and 498 and 476 | 2541.4 and 2830.2 and 2913.1 and 2603.0 | % Reduction (Average) in liver parasitemia ([15]; listed as compound 48): 32% |
| C=C[C@@H](C#CC#C[C@@H](CCCCCCCCC)NC(=O)c1ccccc1)OC(C)=O [Compound 47, (3S,8R)-8-benzamidoheptadeca-1-en-4,6-diyn-3-yl acetate] | 4.85 | >1000 | >1000 | 486000 ± 14000 | >1000 | 14,000 | 35 | >1000 | >1000 | >1000 | >1000 | >1000 | 486000 ± 14000 | 18.3 g (2×) and 19.5 g and 18.2 g | 18.6 | 19.2 | 2979.6 | 26.0 | 596 and 543 and 595 and 582 | 2960.3 and 2834.7 and 2961.0 and 3162.3 | % Reduction (Average) in liver parasitemia ([15]; listed as compound 47): 26% |
| C=C[C@H](O)C#CC#C[C@H](O)CCCCCCCCC [Compound 50, (3S,8R)-heptadeca-1-en-4,6-diyne-3,8-diol] | 0.271 (≈ 1.03 µM) | 8 | 1000 | 38000 ± 2000 | 16 | 2900 | 13 | 8 | 4 | 16 | 16 | 2 | 38000 ± 2000 | 15.7 g and 14.6 g and 14.1 g and 13.4 g | 14.5 | 16.3 | 2367.2 | 41.2 | 628 and 557 and 643 and 612 | 2737.5 and 2143.9 and 2654.9 and 1932.7 | IC50 ([8]; read-out: IC50 anti-Leishmanial): 13 nM; % Reduction (Average) in liver parasitemia ([15]; listed as compound 50): 41% |
